Experimental data taken from patent US20260248771A1, “VALBENAZINE, A VMAT2 INHIBITOR, AS A FREE BASE A TOSYLATE OR DITOSYLATE SALT, FOR USE IN THE TREATMENT OF CHOREA ASSOCIATED WITH HUNTINGTON'S DISEASE” (Neurocrine Biosciences, Inc., priority 2022, published 2026).

Columns and labels:
Format in all cases: in vivo, human
[1] = test system: subjects with HD; assay: Phase 3 study: Short Form 36 Health Survey (SF-36); settings: Week 12
Text: (§1) Exploratory endpoints included: • Wearable movement sensors (in select sites; optional participation) using MC10 Inc., BIOSTAMP® NPOINT® system • Huntington Disease Health Index • Changes from the screening period baseline to each postbaseline study visit (Weeks 2 through 12) in the TMC based on site assessments • Changes from the screening period baseline to maintenance (the average of the Week 10 and Week 12 assessments) in the TMC based on video recording central rater assessments • CGI-C response at Weeks 2 through 10 • PGI-C response at Weeks 2 through 10 • The change from baseline to Weeks 4, 8, and 10 in the Neuro-QoL Upper Extremity Function T-score. • The change from baseline to Weeks 4, 8, and 10 in the Neuro-QoL Lower Extremity Function T-score • CGI-S at Weeks 2 through 12 • PGI-S at Weeks 2 through 12 • SF-36 at Week 12 • HD-HI at Week 10 and Week 12 • EQ-5D-5L at Week 10 and Week 12 • UHDRS scores for motor, behavior, and functional capacity assessment at Weeks 2 through 12 • Other UHDRS scores including functional assessment and independence scale at Week 12 • AS at Week 12 • Change from screening period in physical activity by movement sensors at the Week 10 visit period
The SF-36 is 36-item questionnaire that measures health on 8 dimensions. […]

[2] = test system: subjects with HD; assay: Phase 3 study: Huntington Disease Health Index (HD-HI); settings: for HD-HI hand and arm function subscale, change from baseline / HD-HI involuntary movements subscale, change from baseline / HD-HI mobility subscale, change from baseline: valbenazine group
Text: as §1
The HD-HI includes 13 subscales that measure 13 individual areas of health in patients with HD. Observed values and change from baseline were summarized descriptively for each subscale and the total instrument score by treatment group and visit.

[3] = test system: subjects with HD; assay: Phase 3 study: Clinical Global Impression of Change (CGI-C) response status
Text: As used herein, “Clinical Global Impression of Change” or CGI-C refers to a rating instrument based on a 7-point scale (range: 1=very much improved to 7-very much worse) that can be used to rate the overall global improvement of chorea since the initiation of study drug dosing. This scale is a modification of a scale developed by the Psychopharmacology Research Branch of the National Institute of Mental Health to rate the subject's overall improvement in clinical disorder and provides a global evaluation of improvement over time from the clinician's perspective.
In certain embodiments, the method is effective to result in an improvement in Clinical Global Impression of Change (CGI-C) response status, wherein subjects whose score is either a 1 (“very much improved”) or a 2 (“much improved”) in CGI-C were classified as responders. In certain embodiments, at least about 9% of subjects were classified as responders. In certain embodiments, at least about 10%, such as at least about 15%, at least about 20%, at least about 25%, or at least about 30% of subjects were classified as responders. In certain embodiments, at least about 25%, or at least about 30% of subjects were classified as responders after 12 weeks of treatment.
(§2) A Phase 3, randomized, double-blind, placebo-controlled study to evaluate the efficacy, safety, and tolerability of once-daily valbenazine in subjects with HD was conducted. The study included a 4-week screening period, an 8-week dose-adjustment period, a 4-week maintenance period, and a final study visit 2 weeks following the final dose of study drug.
Secondary endpoints included: • Clinical Global Impression of Change (CGI-C) response status ([…] of “very much improved” or “much improved”) at Week 12; • Patient Global Impression of Change (PGI-C) response status ([…] of “very much improved” or “much improved”) at Week 12; • Change from baseline to Week 12 in the Quality of Life in Neurological Disorders Upper Extremity Function; and • Change from baseline to Week 12 in the Neuro-QoL Lower Extremity Function.
as §1

[4] = test system: subjects with HD; assay: Phase 3 study: Patient Global Impression of Severity (PGI-S)
Text: as §1
Subjects rated the severity of their chorea at scheduled visits on a 5-point scale. The PGI-S was analyzed using the same methods as the CGI-S.

[5] = test system: subjects with HD; assay: Phase 3 study: Neuro-QoL Upper Extremity Function T-score
Text: As used herein, “Neuro-QoL” is a set of self-report measures that assesses the health-related quality of life (HRQOL) of adults and children with neurological disorders. Neuro-QoL Upper Extremity Function scale measures one's ability across fine motor and activities of daily living involving digital, manual and reach-related function and self-care. Neuro-QoL Lower Extremity Function scale measures one's ability to carry out various activities involving the trunk region and increasing degrees of bodily movement, ambulation, balance or endurance. See, National Institute of Neurological Disorders and Stroke (NINDS). User Manual for the Quality of Life in Neurological Disorders (Neuro-QoL) Measures, Version 2.0, March 2015, which is incorporated herein by reference in its entirety.
as §2, with “drug. […]” for “drug.”

With `COc1cc2c(cc1OC)[C@H]1C[C@@H](OC(=O)[C@@H](N)C(C)C)[C@H](CC(C)C)CN1CC2` [Valbenazine, (S)-2-amino-3-methyl-butyric acid (2R,3R,11bR)-3-isobutyl-9,10-dimethoxy-1,3,4,6,7,11b-hexahydro-2H-pyrido[2,1-a]isoquinolin-2-yl ester] the “SF-36 subscales and summary scales, differences between treatment groups” value [1] was “No notable differences were observed at Week 12 between treatment”, the “SF-36 subscales or summary scales, worsening from baseline” value ([1]; valbenazine group) was “No worsening from baseline was observed for the valbenazine group” and the “HD-HI hand and arm function subscale, change from baseline” value ([2]; Week 10) was −7.154. For the same molecule, the “HD-HI involuntary movements subscale, change from baseline” value ([2]; Week 10) was −12.220, the “HD-HI mobility subscale, change from baseline” value ([2]; Week 10) was “placebo for mobility (Week 10: −6.319 valbenazine vs −4.131” and the “HD-HI involuntary movements subscale, LS mean difference between treatment groups” value ([2]; Week 12, ANCOVA model) was “LS mean difference between treatment groups of −6.662 (95%”. The “HD-HI hand and arm function subscale, change from baseline” value ([2]; Week 12) was −7.169, the “HD-HI involuntary movements subscale, change from baseline” value ([2]; Week 12) was −11.195 and the “HD-HI mobility subscale, change from baseline” value ([2]; Week 12) was “placebo; Week 12: −4.208 vs −2.708), involuntary movements (Week”. The “HD-HI total score, changes from baseline” value ([2]; Weeks 10 and 12) was “valbenazine group. No meaningful changes in the HD-HI total score”, the “CGI-C response rate difference between treatment groups (valbenazine minus placebo)” value ([3]; Week 2) was “follows: Week 2 (7.71% [95% CI: −0.93, 17.87], nominal p = 0.1157),” and the “CGI-C response rate difference between treatment groups (valbenazine minus placebo)” value ([3]; Week 4) was “Week 4 (20.42% [95% CI: 7.53, 33.00], nominal p = 0.0012), Week 6”. For the same molecule, the “CGI-C response rate difference between treatment groups (valbenazine minus placebo)” value ([3]; Week 6) was “(20.14% [95% CI: 4.04, 35.89], nominal p = 0.0151), Week 8”, the “CGI-C response rate difference between treatment groups (valbenazine minus placebo)” value ([3]; Week 8) was “(34.50% [95% CI: 16.46, 49.76], nominal p = 0.0001), and Week 10” and the “CGI-C response rate difference between treatment groups (valbenazine minus placebo)” value ([3]; Week 10) was “(24.80% [95% CI: 6.55, 41.18], nominal p = 0.0065)”. The “CGI-C @ week 12, % responders” value ([3]; Week 12, valbenazine group) was 42.9%, the “CGI-C @ week 12, % responders, Difference” value ([3]; Week 12, valbenazine vs placebo) was 29.7% and the “PGI-S: proportion of valbenazine-treated subjects who had no chorea symptoms” value ([4]; Week 12) was “chorea symptoms increased to about 27% from about 9% at baseline,”. The “PGI-S: proportion of valbenazine-treated subjects with moderate symptoms” value ([4]; Week 12) was roughly 29%, the “PGI-S: severe or very severe symptoms” value ([4]; Week 12) was “No valbenazine-treated subject had severe” and the “PGI-S: proportion of valbenazine-treated subjects with mild symptoms” value ([4]; Week 12 (remained consistent from baseline)) was 45%), and the proportion with moderate symptoms decreased from. For the same molecule, the “Neuro-QoL Upper Extremity Function T Score CFB @ week 12, LS Mean” value ([5]; valbenazine group) was −1.58 and the “Neuro-QoL Upper Extremity Function T Score CFB @ week 12, LS Mean, Difference” value ([5]; valbenazine vs placebo) was 1.42.
